{
  "source": "patent US20100324142A1",
  "about": "“HYDROCORTISONE DERIVATIVES AND USE THEREOF FOR THERAPEUTIC OR COSMETIC INDICATIONS” (priority 2007, published 2010)",
  "tested_on": "physiopathological hair loss of unknown cause (patients suffering from alopecia)",
  "test": "Double blind clinical trial on two hundred patients suffering from alopecia",
  "format": "in vivo, human",
  "description": "Clinical Trial (Double Blind) on Two Hundred Patients Suffering from Alopecia\nThe action of the compound according to the invention, produced as described in Example 1, was assessed on a sample population of two hundred people, half of whom were of the female sex. All the persons included in the sample had been affected for at least four months by physiopathological hair loss of unknown cause.\nA double blind trial was set up, in which one hundred patients were administered with a solution containing the compound according to the invention in bidistilled water and one hundred received a placebo solution. The solution according to the invention contained as excipients: sodium hydroxide, benzyl benzoate and benzalkonium chloride.",
  "data": [
    {"smiles": "CC1(CCC(=O)O)C(=O)CCC2C1C(O)CC1(C)C2CCC1(O)C(=O)CO", "note": "(stereo not drawn) [compound according to the invention, 3-[3,5-dihydroxy-3-(2-hydroxy-acetyl)-3a,6-dimethyl-7-oxo-dodecahydro-cyclo-penta[α]naphtalen-6-yl]-propionic acid]", "values": [
      {"measurement": "patients with good hair regrowth observed", "setting": "at the end of the trial, solution of the compound in bidistilled water, one hundred treated patients", "value": 38, "unit": "%"},
      {"measurement": "adverse side effects", "setting": "even after many months of treatment", "value": "total absence of adverse side effects"},
      {"measurement": "subjects in whom hair loss was arrested", "setting": "within the first week of treatment, solution of the compound in bidistilled water, one hundred treated patients, double blind vs placebo", "value": 94, "unit": "%"}
    ]}
  ]
}
